According to patent publication US11034663B2, “Tetrahydronaphtho[1,2-b]furan-2(3H)-one derivatives and preparation and uses thereof” (SHANGHAI QINGDONG BIOTECHNOLOGY CO., LTD., priority 2017, dated 2021):
Entries after “also recorded” stand apart in the source; their conditions may differ.

Tested on: adjuvant-induced arthritis in rats
Assay: Therapeutic effect on adjuvant-induced arthritis in rats
Format: in vivo, Wistar male rats
Method: Wistar male rats, weighing 160-180 g, were raised in the SPF animal room of Shanghai University of Traditional Chinese Medicine, and employed for experiment following at least one week of culture, where the culture was performed at a temperature of 22+1° C. and a humidity of 55±5% under a 12-h light-dark cycle. The feed and water were sterilized and then freely taken by rats. All experiments were carried out in strict accordance with the relevant regulations for experimental animals.
Bacille Calmette-Guerin (BCG) H37Ra was purchased from Difco Co., Ltd. (US); and the YSL-7A Plethysmometer (paw volume) Meter was produced by the equipment station of Shandong Academy of Medical Sciences.
The establishment of the adjuvant-induced arthritis rat model and the administration therefor were described performed as follows. Liquid paraffin was sterilized at high temperature and pressure, added with a 10 mg/mL aqueous BCG solution and emulsified under repeated suction to produce a Freund's complete adjuvant (CFA) emulsion. In the experiment, individual rats were sensitized by intradermal injection of 0.1 mL of the CFA emulsion at the left hind paw to induce adjuvant arthritis in the limbs.
The grouping and administration were performed as follows. The male wistar rats were randomly divided into four groups according to weight each for 10 rats.
The rats in the blank control group were treated with 0.3% CMC solution daily by intragastric administration.
The rats in the arthritis solvent control group were similarly treated with 0.3% CMC solution daily by intragastric administration.
Rats from the two administration groups were respectively treated with 5 mg/kg and 20 mg/kg of compound 59 by oral administration once a day.
In addition to the blank control group, the rats in the other three groups were sensitized individually by […] injection of 0.1 mL of an adjuvant containing 10 mg/mL inactivated bacillus strain at the left hind foot pad. From the 10th day after the occurrence of arthritis, the rats in the administration groups were orally administered for therapeutic pharmacodynamic observation.
The therapeutic effect was monitored as follows. The rats were observed every day for the development of arthritis symptoms and weighed once every 2-3 days. A 5-level standard scoring system based on the clinical disease index was employed to evaluate the inflammation, where “0”: no redness and swelling; “1”: redness and swelling at the small toe joints; “2”: swelling at the toe joints and toes; “3”: swelling at feet below the ankle joint; and “4”: swelling at the entire feet including ankle joint. The two hind feet were measured for the volume to evaluate the swelling degree.

With `Cc1cc(OCc2ccccc2Br)c(C)c2c1CC[C@H]1C(CN(C)C)C(=O)O[C@@H]21` (mixture of isomers) [Compound 59, (3R/S,3aS,9bR)-8-(2-bromobenzyloxy)-3-dimethylaminomethyl-6,9-dimethyl-3a, 4,5,9b-tetrahydronaphtho [1,2-b]furan-2(3H)-one] the “effect on weight of rats with adjuvant-induced arthritis” value (5 mg/kg and 20 mg/kg, oral, once a day, from the 10th day after occurrence of arthritis, FIG. 1) was “showed similar effect on the weight; also recorded: no significant effect on the weight loss”, the “disease index of arthritis (clinical disease index, 0-4 score)” value (5 mg/kg and 20 mg/kg, oral, once a day, compared to the model group, P<0.05, FIG. 2) was “significantly lowered” and the “secondary foot lesions (foot swelling, opposite side)” value (5 mg/kg and 20 mg/kg, oral, once a day, compared to the model group, P<0.05, FIG. 3) was “significantly inhibited; also recorded: alleviating”. For the same compound, the “primary foot lesions (foot swelling, sensitization side)” value (5 mg/kg and 20 mg/kg, oral, once a day, compared to the model group, P<0.05, FIG. 4) was “significantly inhibited; also recorded: alleviating” and the “overall therapeutic effect on adjuvant-induced arthritis in rats” value (daily oral administration) was “remarkable therapeutic effect”.
